In brackets after ≈: the same amount, converted by molar mass. Some results are limits rather than exact numbers.

Experiment [1] has as its system planktonic P. aeruginosa PAO1. Description: Minimum inhibitory concentration (MIC) determination. It is filed as cell-based, Pseudomonas aeruginosa. Conditions: for antimicrobial activity against P. aeruginosa PAO1: up to the highest concentrations applied. On the procedure: The minimum inhibitory concentration (MIC) of compounds and antibiotics were performed as previously described, with minor modification. […] Three antibiotics, including tobramycin, ciprofloxacin, and meropenem, were dissolved in water and filter sterilized. Ten microliters of two-fold serially diluted antibiotics were transferred to a 96-well Costar plate (Corning Inc., Corning, MA, USA) followed by the addition of 90 µL of diluted cultures. After an 18-h incubation at 37 °C in the static condition, optical density OD600 was monitored using a Synergy 2 microplate reader (BioTek, Winooski, VT, USA). […] The MIC was determined as the lowest concentrations of antibiotics that inhibit complete bacterial growth compared to growth control.

Experiment [2] relates to PAO1ΔpelF (Pel deletion mutant). Nature of the experiment: Biofilm inhibition assay (OD600 growth and resazurin biofilm viability). Format: cell-based, Pseudomonas aeruginosa. On the procedure: (§1) Figure 2 Biofilm assays to identify compounds that prevent biofilm formation. Biofilm inhibition assay. P. aeruginosa cultures were seeded into 384-well plates after dispensing compounds and antibiotics. The plates were incubated for 24 h at 37 °C followed by recording bacterial growth (OD600) and measuring the viability of biofilm bacteria using resazurin.
(§2) The overnight cultures at 37 °C in LB medium were washed once with sterile saline 0.9% (w/v) and adjusted to an OD600 of 0.05, and 1% inoculum was transferred into a fresh LB medium. Following incubation at 37 °C, 200 rpm for 6–6.5 h to reach the mid-log phase, the cells were washed once with sterile saline 0.9% and diluted to an OD600 of 0.01. Then, 45 µL aliquots were dispensed into 384-well plates (Greiner Bio-One, Kremsmünster, Austria, catalog no. 781091). In biofilm inhibition assays, test compounds (5 µL) were loaded prior to the addition of bacteria. The plates were incubated for 24 h at 37 °C in static conditions. The effects of compounds on bacterial growth and viability of biofilm bacteria were determined by the OD600 and resazurin metabolic assay, respectively. The final concentrations of DMSO in the assays were 1–2%. The negative controls or untreated cultures consisted of inoculum and different concentrations of DMSO. Antibiotic ciprofloxacin (0.25 µg/mL and 25 µg/mL) was used as positive controls. The initial OD600 and final OD600 were read before incubation at 37 °C and after 24 h incubation, respectively, followed by assessment of biofilm viability by resazurin metabolic assay. The experiments were carried out with three technical replicates and repeated at least twice. The growth inhibition was calculated as a function of the percentage of the total bacterial inhibition using Equation (1), where AB is the OD600 of LB medium, and AT0 and ATf are the OD600 recorded at inoculating time and at the end of the assay. (1) % Inhibition=100 × [ 1 − [OD600 (Asample Tf− Asample T0)−(AB Tf − AB T0)/OD600 (Anegative control Tf− Anegative control T0)−(AB Tf − AB T0)]]
(§3) Resazurin sodium salt (Sigma-Aldrich, St. Louis, MI, USA) was dissolved in Milli-Q water at 0.2% (w/v) and filter sterilized. The solution was stored at −20 °C in the dark. The assay was performed as previously described with modification. The cultures were withdrawn, and the plates were washed three times with sterile water using the plate washer (BioTek). To remove the remaining water in the wells, the plates were tapped with autoclaved paper towels. An amount of 50 µL of diluted RSZ solution in LB medium was added into each well, followed by incubation at 37 °C for 5–6 h. A microplate reader (BioTek Synergy 2) was used to measure the fluorescence intensity (excitation 530 nm, emission 590 nm). Data collected were determined as a function of fluorescence percentage using Equation (2), where FB is the fluorescence of the diluted RSZ solution in LB medium in the absence of P. aeruginosa cells. (2) % Inhibition=[(Fnegative control −FB )−(Fsample −FB )/(Fnegative control − FB )]×100
Background: The colour change of resazurin is a common sign of viable cells or microbes.

Experiment [3] deals with PDO300 (mucoid, alginate-overproducing mutant). The experiment is described as above. Format: cell-based, Pseudomonas aeruginosa. On the procedure:
as §1, §2, §3

The subject of experiment [4] is wild-type P. aeruginosa PAO1. The description is as above. Format: cell-based, Pseudomonas aeruginosa. On the procedure: as §1, §2, §3
Experiment [5] relates to efflux pumps of P. aeruginosa. Description: Ethidium bromide efflux assay. Format: cell-based, Pseudomonas aeruginosa. Conditions: for efflux pump inhibition (intracellular EtBr accumulation): 60 min, compound 3 at 53.1 and 106.2 µg/mL. The source says:
We performed the ethidium bromide (EtBr) efflux assay to assess the ability of test compounds to inhibit efflux pumps of P. aeruginosa. The DNA-intercalating dye EtBr is a common substrate of the resistance-nodulation-cell division (RND) family. The dye only fluoresces when bound to DNA in the cytoplasm. The disruption of efflux pumps such as the RND pump AcrB enhances the accumulation of the substrate within the cells over time until it reaches a steady state. (Figure 5C).
To investigate the efflux pump-inhibiting activity of test compounds on wild-type PAO1, an efflux assay using ethidium bromide (EtBr) as a substrate was performed as previously described. An overnight culture of PAO1 in LB broth was incubated in a shaker at 37 °C until it reached an OD600 of 0.5. The bacterial cells were washed with phosphate buffered saline (PBS) and centrifuged, and the pellet was resuspended in PBS. Test compounds, 5 µL, were added to the flat-bottomed, black 96-well-plate followed by addition of 90 µL of the bacterial suspension. EtBr at a non-toxic concentration (5 µL, 2 µg/mL) was added before the plates were read. The fluorescence reading was recorded at an excitation of 530 nm and emission of 590 nm every min for 60 min using a BioTek Synergy H1 Hybrid microplate reader. Carbonyl cyanide m-chlorophenyl hydrazone (CCCP), a chemical inhibitor of efflux pumps, was used as the positive control, and DMSO (1–2%) was used as the vehicle control, as compounds were dissolved in DMSO. Untreated cells were used as the negative control.

The next experiment relates to PAO1ΔpelF biofilms. Format: cell-based, Pseudomonas aeruginosa. On the procedure: Biofilms of wild-type PAO1 and isogenic biofilm matrix component mutants were treated with ianthelliformisamines or ciprofloxacin alone and the combinations. Their biofilms were simultaneously stained with SYTO9 (green) and propidium iodide (red). Cells with intact membranes were stained green, while cells with compromised membranes were stained red.
For biofilm bacteria imaging, bacteria were cultured, treated with test compounds, and washed, as previously mentioned in the biofilm inhibition assay. The biofilm bacteria were stained using a LIVE/DEAD BacLight bacterial viability kit (Molecular Probes, Inc., Eugene, OR, USA), which consists of SYTO9 (green; staining cells with intact membrane) and propidium iodide (red; staining cells with compromised membrane). Images were captured using a high-content imaging system Operetta CLS (Perkin Elmer, Waltham, MA, USA) with a 60× water-immersion objective.

The test system of the next experiment is P. aeruginosa. Also on record: method as in PMID 24801877. The conditions noted are these: previous work, different culture medium and inoculum possible; cited from earlier work.
Where [6] appears, read: compound 86.2 µg/mL + ciprofloxacin 1/3 MIC (0.083 µg/mL), 24 h.
Where [7] appears, read: compound 69.1 µg/mL + ciprofloxacin 1/4 MIC (0.0625 µg/mL).

For `COc1c(Br)cc(/C=C/C(=O)NCCCNCCCCNCCCN)cc1Br` [Compound 1, ianthelliformisamine A], the “antimicrobial activity against P. aeruginosa PAO1” value in experiment [1] is recorded as “no antimicrobial activity”. The growth disruption in experiment [2] (setting [6]) and in experiment [4] (setting [6]) was over 90% each time. Further, the “prevention of biofilm formation” value in experiment [2] (setting [6]) and in experiment [4] (setting [6]) was over 90% throughout. Moreover, the biofilm effect entry in experiment [3] (compound 43.1 µg/mL + ciprofloxacin 1/3 and 1/4 MICs) was “approximately 100%”; in experiment [3] (compound alone at 43.1 µg/mL), 20%. Besides, the growth inhibition in experiment [3] (compound alone at 43.1 µg/mL and 86.2 µg/mL) was over 70%. The “reduction of biofilm formation” value in experiment [3] (compound alone at 86.2 µg/mL) is ~ 80%. Besides, in experiment [4] (compound alone, 24 h), the “antimicrobial activity / prevention of biofilm formation” value was “did not yield any antimicrobial activity and/or prevented biofilm formation”. Further, the “efflux pump inhibition (intracellular EtBr accumulation)” value (“efflux pump inhibition” below) in experiment [5] is listed as “comparable EtBr accumulation with untreated bacteria”. For the same compound, the “effect in combination with ciprofloxacin” value in the experiment on PAO1ΔpelF biofilms is reported as “synergistic effects”. Moreover, the minimum inhibitory concentration (MIC) (usually the lowest concentration found to suppress growth) in the experiment with P. aeruginosa was 172.4 µg/mL (≈ 331 µM).

For `COc1c(Br)cc(/C=C/C(=O)NCCCNCCCCN)cc1Br` [Compound 2, ianthelliformisamine B], the “antimicrobial activity against P. aeruginosa PAO1” value in experiment [1] is given as “no antimicrobial activity”. Besides, the “improvement of biofilm suppression by addition of ciprofloxacin” value in experiment [2] (ciprofloxacin 1/3 MIC added) was found to be 20%; in experiment [2] (ciprofloxacin 1/4 MIC added), 13%. Moreover, the “growth inhibition and antibiofilm activity” value in experiment [2] (setting [7]) is “caused growth inhibition and antibiofilm activity”; in experiment [4] (setting [7]) it was “caused growth inhibition and antibiofilm activity”. The “blockage of cellular progression (growth)” value was over 50% in experiment [3] (compound alone); over 70% in experiment [3] (in the presence of ciprofloxacin at 1/3 and 1/4 MICs). For the same compound, the “antimicrobial activity / prevention of biofilm formation” value in experiment [4] (compound alone, 24 h) was “did not yield any antimicrobial activity and/or prevented biofilm formation”. The “efflux pump inhibition” value in experiment [5] was “comparable EtBr accumulation with untreated bacteria”. In addition, the “effect in combination with ciprofloxacin” value in the experiment with PAO1ΔpelF biofilms is on record as “synergistic effects”. The minimal inhibitory concentration (MIC) with P. aeruginosa is listed as over 138.2 µg/mL.

With `COc1c(Br)cc(/C=C/C(=O)NCCCNCCCCNCCCNC(=O)/C=C/c2cc(Br)c(OC)c(Br)c2)cc1Br` [Compound 3, ianthelliformisamine C], the minimum inhibitory concentration (MIC) is 53.1 µg/mL in experiment [1] (Pseudomonas aeruginosa, planktonic (free-living) PAO1, LB medium, 18 h, 37 °C) and ~ 26.55 µg/mL with P. aeruginosa. For the same compound, the “biofilm response (reduction)” value in experiment [2] (combinations of compound with ciprofloxacin) is given as ~ 60%; in experiment [2] (compound alone 106.2 µg/mL), ~ 40%. In addition, the “synergistic interaction with ciprofloxacin, planktonic forms and biofilms” value in experiment [2] (compound 53.1 µg/mL) and in experiment [4] (compound 53.1 µg/mL) was “negligible synergistic interactions” in each case. Moreover, the “interaction with ciprofloxacin on biofilm” value in experiment [2] (compound 106.2 µg/mL, ciprofloxacin 1/4 MIC) is recorded as “antagonized”. For the same compound, the planktonic growth inhibition result in experiment [2] (compound alone 106.2 µg/mL) and in experiment [4] (compound alone 106.2 µg/mL) was “independently inhibited planktonic growth” in each case. For the same compound, the “effect on free-living cells” value in experiment [3] (compound alone) was “eradicated”. The “reduction of biofilm viability” value in experiment [3] (compound alone) is ~ 100%. Also, the “killing of biofilm bacteria” value in experiment [4] (compound alone, 24 h) was at most 60%. In experiment [4] (compound alone, 24 h), the “killing of free-living bacteria” value is “up to 30%”. Moreover, the “level of intracellular EtBr accumulation relative to CCCP” value in experiment [5] is “greater than that mediated by reference compound CCCP”. The “efflux pump inhibition” value in experiment [5] was “is an efflux pump inhibitor”; in experiment [5] (listed as ianthelliformisamine C), “inhibited the efflux pump”. For the same compound, the “effect in combination with ciprofloxacin” value in the experiment on PAO1ΔpelF biofilms is listed as “no effect”. Also, the biofilm after treatment entry with PAO1ΔpelF biofilms (compound alone) is recorded as “no effect”.
